“Also recorded” adds a separate entry of the source.
Experiments:
Pseudomonas aeruginosa [1] = assay: OPA with mAb/antibiotic combinations; assay type: cell-based; settings: 90 minutes
Experimental: The assay is performed in 96-well microtiter plates with 1% BSA in MEM as the assay diluent. The Leukemia-derived human cell-line HL-60 is used as source of neutrophils. Differentiation of HL-60 cells into neutrophils is induced by addition of 100 mM Dimethylformamide (DMF). Neutrophil morphology is verified by expression of CD11b/Mac-1 marker using FACS. Neutrophils are washed, re-suspended in assay diluent, counted and diluted to a density of 2.5×10^7 cells/ml. Opsonization is mediated by Rabbit sera complement, diluted in assay diluent for a final dilution factor of 1:60. Freshly grown log-phase Pseudomonas strains are re-suspended and diluted in assay diluent to achieve a final ratio of neutrophils to bacteria of 20:1 to 40:1. Dilutions of Aerucin™ from 5 μg/ml to 100 ng/ml are prepared in assay diluent along with a commercial human IgG1 at 5 μg/ml as negative control. Other negative controls include assay mixtures with certain components (complements, neutrophils, antibodies) absent.
Equal volumes (50 μl) of each component are added to assay wells in the order of: antibodies, complement, neutrophils then bacteria. The components are mixed using a multichannel pipette. Samples at time zero are taken, diluted and plated on agar plates for titer determination. Assay plates are then incubated at 37° C. with shaking for 90 minutes. Samples are again taken, diluted and plated on agar plates.
(§1) Bacteria titers (CFU/ml) are determined for time-zero and 90-minute samples from colony counts on agar plates after overnight incubation at 37° C. Percent kills are calculated as the difference in titer at 90 minutes from time-zero, divided by the titer at time-zero: […].
The assay is performed as described above except that equal volumes (50 μl) of each component are added to assay wells in the order of: antibodies, antibiotic, complement, neutrophils, and then bacteria. Bacteria titers (CFU/ml) are measured directly after mixing all components and after 90 minutes incubation. The read-out of the assay (% kill) is how well the drug or combination of drugs can kill bacteria over these 90 minutes.
Averages from three independent experiments are presented.
Minimum inhibitory concentrations (MICs) of the antibiotics used in the OPA assays had been determined upfront (data not shown). […] Data for bactericidal antibiotics Cefepime and Piperacillin was generated with 1×MIC, for Aztreonam (bactericidal) with ½ MIC.

P. aeruginosa = settings: cited from earlier work
Pseudomonas aeruginosa [2] = assay: Opsonic phagocytosis assay (OPA) with Aerucin; assay type: cell-based
From the text: FIG. 3. […] The opsonic phagocytosis assay (OPA) measures potency of antibodies based on the ability to initiate and mediate destruction of their specific targets by neutrophils. The assay utilizes purified complement from goat, rabbit, guinea pig or human sera, and neutrophils either isolated from whole blood or from differentiation of parental cell lines. Various concentrations of the antibody of interest, along with controls, are mixed with antigens. Complement serum and neutrophils are then added at certain ratios. After incubation to allow phagocytosis to occur, fractions of remaining antigens are then quantified by plating (bacteria) on agar plates to enumerate bacterial colonies remaining from the titer that was used at the start of the assay reaction. […]
The assay is performed in 96-well microtiter plates with 1% BSA in MEM as the assay diluent. […] Neutrophils are washed, re-suspended in assay diluent, counted and diluted to a density of 2.5×10^7 cells/ml. […]
as §1

[3] = 4 μg/ml antibiotic alone (Cefepime 1× MIC, Aztreonam ½ MIC)

**Q.** With `O=C(O)c1cn(C2CC2)c2cc(N3CCNCC3)c(F)cc2c1=O` [Ciprofloxacin] as the molecule, how does the “% Kill” value (Pseudomonas aeruginosa [1]; 0.5 μg/ml Ciprofloxacin alone (2× MIC)) read?
**A.** The value was “does not show bacterial killing”.

**Q.** Which “% Kill” value (Pseudomonas aeruginosa [1]; 8 μg/ml Piperacillin alone (1× MIC)) does the source give for `CCN1CCN(C(=O)N[C@@H](C(=O)N[C@@H]2C(=O)N3[C@@H]2SC(C)(C)[C@@H]3C(=O)O)c2ccccc2)C(=O)C1=O` [Piperacillin] here?
**A.** Its value is about 40%.

**Q.** For `CO/N=C(\C(=O)N[C@@H]1C(=O)N2C(C(=O)[O-])=C(C[N+]3(C)CCCC3)CS[C@H]12)c1csc(N)n1` [Cefepime], which “% Kill” value (Pseudomonas aeruginosa [1]; [3]) is on record?
**A.** The value was 40%.

**Q.** For Colistin, which “% Kill” value (Pseudomonas aeruginosa [1]; 2 μg/ml Colistin alone (2× MIC)) is on record?
**A.** Its value is about 20%.

**Q.** Which “activity on a meropenem resistant P. aeruginosa strain” value (P. aeruginosa; meropenem resistant strain) does the source give for “Panobacumab: anti-P. aeruginosa serotype 011 lipopolysaccharide monoclonal antibody” here?
**A.** Its value is “retained activity”.

**Q.** What about the “bacterial clearance from the lung” value (P. aeruginosa; neutropenic host) of the same molecule?
**A.** The value was “enhanced bacterial clearance”.

**Q.** And the lung inflammation (P. aeruginosa; neutropenic host)?
**A.** Its lung inflammation is “significantly reduced lung inflammation”.

**Q.** With `C[C@H]1[C@H](NC(=O)/C(=N\OC(C)(C)C(=O)O)c2csc(N)n2)C(=O)N1S(=O)(=O)O` [Aztreonam] as the molecule, how does the “% Kill” value (Pseudomonas aeruginosa [1]; [3]) read?
**A.** Its value is 60%.

B1: Aerucin: anti-Pseudomonas aeruginosa MEP binding human monoclonal antibody; heavy chain variable SEQ ID NO: 5, light chain variable SEQ ID NO: 7 (antibody, listed as Homo sapiens, V domains shown)
VH: QLQLQESGPGLVKPTETLSLTCTVSGGPITYINYYWGWVRQPPGKGLEWIGSIHYDGSTFYNPSLKSRVTISGDTSKSEFSVKLSSVTAADTAVYYCARTYYDASGSPYFDHWGQGTLVTVSS
VL: QSVLTQPPSVSAAPGQKVSISCSGSSSNIGNNYVSWYQQLPGTAPNLLIYDNNKRPSGIPDRFSGSKSGTSATLDITGLQSGDEADYYCGTWDSSLSTWVFGGGTKLTVL
**Q.** For B1, which “opsonic phagocytosis: killing over negative controls” value (Pseudomonas aeruginosa [2]; Aerucin 5 μg/ml to 100 ng/ml, rabbit complement, HL-60 neutrophils, 90 minutes) is on record?
**A.** The value was “significant increase in killing over negative controls in a dose-dependent manner”.

**Q.** What about the “killing of P. aeruginosa in the absence of complement” value (Pseudomonas aeruginosa [2]; OPA without complement, a number of Pa strains (Pa 2410, Pa 27853, Pa PGO2338)) of the same molecule?
**A.** Its value is “killing of P. aeruginosa bacteria in the absence of complement; also recorded: killing was observed in the absence of complement”.

**Q.** And the “% Kill” value (Pseudomonas aeruginosa [1]; 50 ng/ml Aerucin alone)?
**A.** Its value is “around 5%”.

Source: patent publication US20210283253A1, “COMPOSITIONS AND METHODS AGAINST P. AERUGINOSA INFECTIONS” (priority 2017, published 2021)
